According to patent US9765092B2, “Tricyclic piperidine compounds” (ACTELION PHARMACEUTICALS LTD, priority 2013, dated 2017):

molecular target: human TPH1 (Homo sapiens (Human), UniProt P17752); assay: Biochemical in vitro assay using fluorescence readout (TPH1 inhibition); details: full length human TPH1, 40 μM L-tryptophan, 15° C., 60 minutes, fluorescence at 540 nm; mean if determined several times
Sequence (P17752 whole entry): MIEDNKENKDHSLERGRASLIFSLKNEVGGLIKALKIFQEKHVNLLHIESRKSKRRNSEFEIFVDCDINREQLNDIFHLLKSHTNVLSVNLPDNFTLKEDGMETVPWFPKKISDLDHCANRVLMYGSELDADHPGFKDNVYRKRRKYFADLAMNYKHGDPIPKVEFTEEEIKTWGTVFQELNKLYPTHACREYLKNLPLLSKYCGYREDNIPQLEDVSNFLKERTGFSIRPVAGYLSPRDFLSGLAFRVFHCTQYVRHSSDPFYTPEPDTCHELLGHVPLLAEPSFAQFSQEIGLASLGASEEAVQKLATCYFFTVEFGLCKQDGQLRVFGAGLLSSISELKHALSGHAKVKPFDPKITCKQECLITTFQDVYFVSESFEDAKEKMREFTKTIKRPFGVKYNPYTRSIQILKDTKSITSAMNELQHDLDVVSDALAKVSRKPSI

Structure (SMILES)	IC50 [nM]
Cc1nn2c3c(nc2s1)CCN(C(=O)COc1ccc(C(F)(F)F)nc1Cl)C3c1cnc(N(C)C)s1 (stereo not shown) [Example 1.22.3, 2-((2-Chloro-6-(trifluoromethyl)pyridin-3-yl)oxy)-1-(5-(2-(dimethylamino)thiazol-5-yl)-2-methyl-7,8-dihydro-[1,3,4]thiadiazolo[2′,3′:2,3]imidazo[4,5-c]pyridin-6(5H)-yl)ethanone]	136
Cc1nn2c3c(nc2s1)CCN(C(=O)COc1ccc(NS(=O)(=O)C2CC2)nc1Cl)C3c1ccc(Cl)cc1F (stereo not shown) [Example 1.4.16, N-(6-Chloro-5-(2-(5-(4-chloro-2-fluorophenyl)-2-methyl-7,8-dihydro-[1,3,4]thiadiazolo[2′,3′:2,3]imidazo[4,5-c]pyridin-6(5H)-yl)-2-oxoethoxy)pyridin-2-yl)-cyclopropanesulfonamide]	7
Cc1nn2c3c(nc2s1)CCN(C(=O)COc1ccc(C2CC2)nc1Cl)C3c1ccc(Cl)cc1F (stereo not shown) [Example 1.4.28, 1-(5-(4-Chloro-2-fluorophenyl)-2-methyl-7,8-dihydro-[1,3,4]thiadiazolo[2′,3′:2,3]imidazo[4,5-c]pyridin-6(5H)-yl)-2-((2-chloro-6-cyclopropylpyridin-3-yl)oxy)-ethanone]	6
Cc1nn2c3c(nc2s1)CCN(C(=O)COc1ccc(N2CC4CC2CO4)nc1Cl)C3c1ccc(Cl)cc1F (stereo not shown) [Example 1.4.33, 2-((6-(2-Oxa-5-azabicyclo[2.2.1]heptan-5-yl)-2-chloropyridin-3-yl)oxy)-1-(5-(4-chloro-2-fluorophenyl)-2-methyl-7,8-dihydro-[1,3,4]thiadiazolo[2′,3′:2,3]imidazo[4,5-c]pyridin-6(5H)-yl)ethanone]	2
CNC(=O)c1ccc(OCC(=O)N2CCc3nc4sc(C)nn4c3C2c2cc(C(=O)N(C)C)cs2)c(Cl)n1 (stereo not shown) [Example 1.9.6, 6-Chloro-5-(2-(5-(4-(dimethylcarbamoyl)thiophen-2-yl)-2-methyl-7,8-dihydro-[1,3,4]-thiadiazolo[2′,3′:2,3]imidazo[4,5-c]pyridin-6(5H)-yl)-2-oxoethoxy)-N-methyl-picolinamide]	99

same assay, conditions: human TPH1, fluorescence readout

Structure (SMILES)	IC50 [nM]
Cc1nn2c3c(nc2s1)CCN(C(=O)COc1ccc(I)nc1Cl)C3c1ccc(Cl)cc1F (stereo not shown) [Example 1.4.10, 1-(5-(4-chloro-2-fluorophenyl)-2-methyl-7,8-dihydro-[1,3,4]thiadiazolo[2′,3′:2,3]imidazo[4,5-c]pyridin-6(5H)-yl)-2-((2-chloro-6-iodopyridin-3-yl)oxy)ethanone]	8
Cc1nn2c3c(nc2s1)CCN(C(=O)COc1ccc(C(F)(F)F)cc1Cl)C3c1sc(C(=O)N(C)C)cc1F (stereo not shown) [Example 1.24.3, 5-(6-(2-(2-chloro-4-(trifluoromethyl)phenoxy)acetyl)-2-methyl-5,6,7,8-tetrahydro-[1,3,4]thiadiazolo[2′,3′:2,3]imidazo[4,5-c]pyridin-5-yl)-4-fluoro-N,N-dimethylthiophene-2-carboxamide]	8
Cc1nn2c3c(nc2s1)CCN(C(=O)COc1cc(F)c(I)nc1Cl)C3c1ncc(C2CC2)cc1F (stereo not shown) [Example 1.14.6, 2-((2-chloro-5-fluoro-6-iodopyridin-3-yl)oxy)-1-(5-(5-cyclopropyl-3-fluoropyridin-2-yl)-2-methyl-7,8-dihydro-[1,3,4]thiadiazolo[2′,3′:2,3]imidazo[4,5-c]pyridin-6(5H)-yl)ethanone]	6
Cc1nc(C)c(C2c3c(nc4sc(C)nn34)CCN2C(=O)COc2ccc(N3CCCS3(=O)=O)nc2Cl)s1 (stereo not shown) [Example 1.68.5, 2-((2-chloro-6-(1,1-dioxidoisothiazolidin-2-yl)pyridin-3-yl)oxy)-1-(5-(2,4-dimethylthiazol-5-yl)-2-methyl-7,8-dihydro-[1,3,4]thiadiazolo[2′,3′:2,3]imidazo[4,5-c]pyridin-6(5H)-yl)ethanone]	5
Cc1nn2c3c(nc2s1)CCN(C(=O)COc1ccc[n+]([O-])c1Cl)C3c1ccc(C2CC2)cc1F (stereo not shown) [Example 1.6.19, 2-chloro-3-(2-(5-(4-cyclopropyl-2-fluorophenyl)-2-methyl-7,8-dihydro-[1,3,4]thiadiazolo[2′,3′:2,3]imidazo[4,5-c]pyridin-6(5H)-yl)-2-oxoethoxy)pyridine-1-oxide]	250
CC(=O)Nc1ccc(C2c3c(nc4sc(C)nn34)CCN2C(=O)COc2ccc(N3CCOCC3)nc2Cl)s1 (stereo not shown) [Example 1.13.1, N-(5-(6-(2-((2-chloro-6-morpholinopyridin-3-yl)oxy)acetyl)-2-methyl-5,6,7,8-tetrahydro-[1,3,4]thiadiazolo [2′,3′:2,3]imidazo[4,5-c]pyridin-5-yl)thiophen-2-yl)acetamide]	54
CS(=O)(=O)Nc1ccc(OCC(=O)N2CCc3nc4sccn4c3C2c2ccc(Cl)cc2F)c(Cl)n1 (stereo not shown) [Example 6.4.8, N-(6-chloro-5-(2-(5-(4-chloro-2-fluorophenyl)-7,8-dihydrothiazolo[2′,3′:2,3]imidazo[4,5-c]pyridin-6(5H)-yl)-2-oxoethoxy)pyridin-2-yl)methanesulfonamide]	3
Cc1nn2c3c(nc2s1)CCN(C(=O)C(C)(C)Oc1ccc(C(=O)N(C)C)nc1Cl)C3c1ccc(Cl)cc1F (stereo not shown) [Example 1.4.58, 6-chloro-5-((1-(5-(4-chloro-2-fluorophenyl)-2-methyl-7,8-dihydro-[1,3,4]thiadiazolo[2′,3′:2,3]imidazo[4,5-c]pyridin-6(5H)-yl)-2-methyl-1-oxopropan-2-yl)oxy)-N,N-dimethylpicolinamide]	55
Cc1cc(Cl)ccc1OCC(=O)N1CCc2nc3sccn3c2C1c1ccc(Cl)cc1F (stereo not shown) [Example 6.4.3, 1-(5-(4-chloro-2-fluorophenyl)-7,8-dihydrothiazolo-[2′,3′:2,3]imidazo[4,5-c]pyridin-6(5H)-yl)-2-(4-chloro-2-methylphenoxy)ethanone]	6
Cc1nn2c3c(nc2s1)CCN(C(=O)COc1ccc(C(=O)N(C)C)nc1Cl)C3c1ccc(OC(F)F)cc1F (stereo not shown) [Example 1.54.1, 6-chloro-5-(2-(5-(4-(difluoromethoxy)-2-fluorophenyl)-2-methyl-7,8-dihydro-[1,3,4]thiadiazolo[2′,3′:2,3]imidazo[4,5-c]pyridin-6(5H)-yl)-2-oxoethoxy)-N,N-dimethylpicolinamide]	14
Cc1cnc(C2c3c(nc4sc(C)nn34)CCN2C(=O)COc2ccc(N3CCOCC3)nc2Cl)c(F)c1 (stereo not shown) [Example 1.31.2, 2-((2-chloro-6-morpholinopyridin-3-yl)oxy)-1-(5-(3-fluoro-5-methylpyridin-2-yl)-2-methyl-7,8-dihydro-[1,3,4]thiadiazolo [2′,3′:2,3]imidazo[4,5-c]pyridin-6(5H)-yl)ethanone]	5
Cc1nn2c3c(nc2s1)CCN(C(=O)COc1ccc(C(=O)N(C)C)nc1Cl)C3c1ccc(Cl)cc1F (stereo not shown) [Example 1.4.42, 6-chloro-5-(2-(5-(4-chloro-2-fluorophenyl)-2-methyl-7,8-dihydro-[1,3,4]thiadiazolo[2′,3′:2,3]imidazo[4,5-c]pyridin-6(5H)-yl)-2-oxoethoxy)-N,N-dimethylpicolinamide]	18
Cc1nn2c3c(nc2s1)CCN(C(=O)COc1ccc(-c2ncco2)nc1Cl)[C@H]3c1sccc1F [Example 1.23.15, (R)-2-((2-chloro-6-(oxazol-2-yl)pyridin-3-yl)oxy)-1-(5-(3-fluorothiophen-2-yl)-2-methyl-7,8-dihydro-[1,3,4]thiadiazolo[2′,3′:2,3]imidazo[4,5-c]pyridin-6(5H)-yl)ethanone]	20
O=C(COc1ccc(NS(=O)(=O)C2CC2)nc1Cl)N1CCc2nc3sccn3c2C1c1sccc1F (stereo not shown) [Example 6.8.1, N-(6-chloro-5-(2-(5-(3-fluorothiophen-2-yl)-7,8-dihydro-thiazolo[2′,3′:2,3]imidazo[4,5-c]pyridin-6(5H)-yl)-2-oxoethoxy)pyridin-2-yl)cyclopropanesulfonamide]	15
O=C(COc1ccc2ccncc2c1)N1CCc2nc3sccn3c2C1c1nc2ccccc2s1 (stereo not shown) [Example 6.12.9, 1-(5-(benzo[d]thiazol-2-yl)-7,8-dihydrothiazolo-[2′,3′:2,3]imidazo[4,5-c]pyridin-6(5H)-yl)-2-(isoquinolin-7-yloxy)ethanone]	12
CCc1cc(Cl)ccc1OCC(=O)N1CCc2nc3sc(C)nn3c2C1c1ccc(C2CC2)cc1F (stereo not shown) [Example 1.6.7, 2-(4-chloro-2-ethylphenoxy)-1-(5-(4-cyclopropyl-2-fluorophenyl)-2-methyl-7,8-dihydro-[1,3,4]thiadiazolo[2′,3′:2,3]imidazo[4,5-c]pyridin-6(5H)-yl)ethanone]	7
Cc1nn2c3c(nc2s1)CCN(C(=O)COc1cccnc1Cl)C3c1ccc(C2CC2)cc1F (stereo not shown) [Example 1.6.11, 2-((2-chloropyridin-3-yl)oxy)-1-(5-(4-cyclopropyl-2-fluorophenyl)-2-methyl-7,8-dihydro-[1,3,4]thiadiazolo[2′,3′:2,3]imidazo[4,5-c]pyridin-6(5H)-yl)ethanone]	14
Cc1nn2c3c(nc2s1)CCN(C(=O)COc1ccc(N2CCOCC2)cc1Cl)C3c1cnc(C2CC2)nc1 (stereo not shown) [Example 1.10.2, 2-(2-chloro-4-morpholinophenoxy)-1-(5-(2-cyclopropyl-pyrimidin-5-yl)-2-methyl-7,8-dihydro-[1,3,4]thiadiazolo [2′,3′:2,3]imidazo[4,5-c]pyridin-6(5H)-yl)ethanone]	18
O=C(COc1cccc(C(F)(F)F)c1Cl)N1CCc2nc3sccn3c2C1c1cnn(-c2ccccc2)c1 (stereo not shown) [Example 6.13.1, 2-(2-chloro-3-(trifluoromethyl)phenoxy)-1-(5-(1-phenyl-1H-pyrazol-4-yl)-7,8-dihydrothiazolo[2′,3′:2,3]-imidazo[4,5-c]pyridin-6(5H)-yl)ethanone]	75
Cc1nn2c3c(nc2s1)CCN(C(=O)COc1ccc(C(=O)N(C)C2CC2)nc1Cl)C3c1ccc(Cl)cc1F (stereo not shown) [Example 1.4.46, 6-chloro-5-(2-(5-(4-chloro-2-fluorophenyl)-2-methyl-7,8-dihydro-[1,3,4]thiadiazolo[2′,3′:2,3]imidazo[4,5-c]pyridin-6(5H)-yl)-2-oxoethoxy)-N-cyclopropyl-N-methylpicolinamide]	16
